Results published in the NIST ThermoML archive (doi:10.1021/acs.jced.5b00675).

Settings: Liquid, Closed cell (Static) method

FCC(F)(F)F [1,1,1,2-tetrafluoroethane]
Settings | vapor or sublimation pressure [kPa]
258.2 K | 162
262.2 K | 193
272.2 K | 286
282.6 K | 411
292.9 K | 569
302.7 K | 763
